From patent publication EP0047620A1, “Aryl diazabicyclyl amides, a process for their preparation and use” (BEECHAM GROUP PLC, priority 1980, dated 1982)

Key:
mouse = experiment: Inhibition of apomorphine induced climbing in the mouse; assay type: in vivo; details: sc, apomorphine 1 mg/kg s.c., compounds given subcutaneously, climbing scored at 10, 20 and 30 minutes, I + number = inactive at that dose
Procedure: The test is based on that described by Protais, P., Constantin, J. and Schwartz, J.C.
Apomorphine 1 mg/kg s.c. induces mice to climb the wall of a wire cage (inverted food hopper - 11 x 7.5 x 18 cm high). Mice acclimatised in their home cages in groups of 5 are placed under the hoppers immediately after the injection of apomorphine 1 mg/kg s.c. At 10, 20 and 30 minutes after injection climbing behaviour is scored. The mice are observed for 30 seconds and scored according to the position in which they spend the majority of time, score O - four paws on floor of cage; score 1 - fore paws only on walls; score 2 - all paws on wall of cage. The scores at all 3 times and for each mouse are summed and mice drug treated subcutaneously compared to mice receiving apomorphine only.
Compounds were also tested for their ability to inhibit apomorphine induced climbing in the mouse.

rat = experiment: Increase in intragastric pressure in the rat; assay type: in vivo; details: conscious restrained rats, subcutaneous administration, increase in intragastric pressure over 40 minute period after dosing
Procedure: Intragastric pressure changes were recorded from previously starved conscious but retrained rats using a saline filled catheter inserted into the lumen of the stomach via a permanent gastric fistula. The catheter was connected to a physiological pressure transducer and pressure changes recorded on a hot wire pen recorder. In each animal a pre-dose period of 40 minutes was allowed to obtain a measure of spontaneous activity. An index of activity was obtained by measuring the average height of pressure waves during 10 minute periods. Values for 4 such periods were obtained during assessment of spontaneous activity and for the 40 minute period after the subcutaneous administration of the compounds. Students 't' test was applied to the difference in average values obtained for spontaneous and post-compound activity.

| Molecule | ED50 (mouse) | minimal effective dose (rat; Rattus norvegicus, sc, 40 min, read-out: Dose mg/kg Subcutaneously (minimum dose for activity)) | Dose mg/kg Subcutaneously (minimum dose for activity) (rat) |
| --- | --- | --- | --- |
| COc1cc(N)c(Cl)cc1C(=O)NC1CCN2CCCCN2C1 (racemic) [Example 2, (±) 4-Amino-5-chloro-2-methoxy-N-(3-{1,6-diazabicyclo [4,4,0]decyl}) benzamide] | 110 mg/kg | 1 mg/kg |  |
| COc1cc(N)c(Cl)cc1C(=O)NC1CN2CCC(c3ccccc3)CN2C1 (centres unmarked) [Example 8, 4-Amino-5-chloro-2-methoxy-N-(3-{7-phenyl-1,5-diaza-bicyclo[4,3,0]nonyl})benzamide] | 4.5 mg/kg |  |  |
| (±) 4-Amino-5-chloro-2-methoxy-N-(7 or 8- {2-methyl-1,5-diazabicyclo[4,3,0]nonyl})benzamide [Example 14] |  |  | 0.5 mg/kg |
| (±) 4-Amino-5-chloro-2-methoxy-N-(7 or 8-{2- methyl-1,5-diazabicyclo[4,3,0]nonyl})benzamide [Example 15] |  |  | 1.0 mg/kg |
